Results on 23 molecules are retold here after patent US10221161B2, “Inhibitors of plasma kallikrein” (Kalvista Pharmaceuticals Limited, priority 2013, dated 2019).

One assay concerns the target Human plasma kallikrein (Homo sapiens (Human), UniProt P03952). The experiment in a line: Determination of the IC50 for plasma kallikrein (fluorogenic substrate H-DPro-Phe-Arg-AFC). Format: biochemical. As to conditions: 37° C., read-out: IC50 (human PKal). The protocol: Determination of the IC50 Plasma Kallikrein Plasma kallikrein inhibitory activity in vitro was determined using standard published methods (see e.g. Johansen et al., Int. J. Tiss. […] Shori et al., Biochem. Pharmacol., 1992, 43, 1209; Stürzebecher et al., Biol. Chem. Hoppe-Seyler, 1992, 373, 1025). Human plasma kallikrein (Protogen) was incubated at 37° C. with the fluorogenic substrate […] and various concentrations of the test compound.

Another assay concerns the target Human KLK1 (Homo sapiens (Human), UniProt P06870). As to the kind of experiment: Determination of the IC50 for KLK1 (fluorogenic substrate H-DVal-Leu-Arg-AFC). Format: biochemical. As to conditions: human KLK1, 37° C. The protocol: Selected compounds were further screened for inhibitory activity against the related enzyme KLK1. The ability of the compounds of formula (I) to inhibit KLK1 may be determined using the following biological assay:
Determination of the IC50 for KLK1
KLK1 inhibitory activity in vitro was determined using standard published methods (see e.g. Johansen et al., Int. J. Tiss. Reac. 1986, 8, 185; Shori et al., Biochem. Pharmacol., 1992, 43, 1209; Stürzebecher et al., Biol. Chem. Hoppe-Seyler, 1992, 373, 1025). Human KLK1 (Callbiochem) was incubated at 37° C. with the fluorogenic substrate H-DVal-Leu-Arg-AFC and various concentrations of the test compound. Residual enzyme activity (initial rate of reaction) was determined by measuring the change in optical absorbance at 410 nm and the IC50 value for the test compound was determined.

Structures are written as SMILES. A value given as a limit tells only on which side of the number the result lay.

Human KLK1, sequence (P06870 25-262): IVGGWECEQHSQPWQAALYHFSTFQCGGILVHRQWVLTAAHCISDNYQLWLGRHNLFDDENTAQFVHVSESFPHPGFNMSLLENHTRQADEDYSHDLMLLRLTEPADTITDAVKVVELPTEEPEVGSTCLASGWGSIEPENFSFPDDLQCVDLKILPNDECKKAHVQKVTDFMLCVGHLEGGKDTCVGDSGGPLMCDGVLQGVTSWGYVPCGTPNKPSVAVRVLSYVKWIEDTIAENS
Human plasma kallikrein, sequence (P03952 391-638 limits assumed): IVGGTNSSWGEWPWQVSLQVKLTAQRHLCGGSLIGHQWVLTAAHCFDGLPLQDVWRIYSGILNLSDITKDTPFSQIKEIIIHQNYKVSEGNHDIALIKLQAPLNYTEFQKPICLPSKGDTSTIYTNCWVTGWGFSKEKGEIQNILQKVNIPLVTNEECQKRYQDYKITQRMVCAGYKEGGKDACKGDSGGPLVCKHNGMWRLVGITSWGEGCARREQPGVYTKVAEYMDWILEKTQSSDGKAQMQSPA
Human plasma kallikrein, sequence (P03952 20-390 partner limits assumed): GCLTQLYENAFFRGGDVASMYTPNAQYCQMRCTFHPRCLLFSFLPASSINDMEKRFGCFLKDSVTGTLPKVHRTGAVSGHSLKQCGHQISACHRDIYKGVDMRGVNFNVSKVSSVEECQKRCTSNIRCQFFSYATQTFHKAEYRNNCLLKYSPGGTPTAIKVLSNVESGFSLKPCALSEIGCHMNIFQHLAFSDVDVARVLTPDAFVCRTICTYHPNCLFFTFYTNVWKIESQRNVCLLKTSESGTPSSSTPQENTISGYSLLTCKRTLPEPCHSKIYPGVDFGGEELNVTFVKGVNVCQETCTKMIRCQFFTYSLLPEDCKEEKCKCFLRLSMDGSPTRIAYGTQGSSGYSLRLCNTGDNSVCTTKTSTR

One may read the IC50 as the midpoint of a concentration-inhibition curve. In the case of `COc1cc(Cc2cncc(C(=O)NCc3ccc4c(N)nccc4c3)c2)ccc1Cn1cc(C)cn1` [Example 33, N-[(1-Aminoisoquinolin-6-yl)methyl]-5-({3-methoxy-4-[(4-methylpyrazol-1-yl)methyl]phenyl}methyl)pyridine-3-carboxamide], the IC50 at Human plasma kallikrein amounted to 0.0171 µM; against Human KLK1 it was 17.1 µM.

Take `COc1ncc(C(=O)NCc2ccc3c(N)nccc3c2)cc1Cc1ccc2nc(C)ccc2c1` [Example 18, N-[(1-Aminoisoquinolin-6-yl)methyl]-6-methoxy-5-[(2-methylquinolin-6-yl)methyl]pyridine-3-carboxamide]: the half-inhibitory concentration (IC50) at Human plasma kallikrein was 0.702 µM; at Human KLK1, 1.74 µM.

Regarding `CCOC(=O)C1CCN(c2ccc(Cc3cncc(C(=O)NCc4ccc5c(N)nccc5c4)c3)cn2)C1` (stereo not drawn) [Example 72, Ethyl 1-{5-[(5-{[(1-aminoisoquinolin-6-yl)methyl]carbamoyl}pyridin-3-yl)methyl]pyridin-2-yl}pyrrolidine-3-carboxylate], the half-maximal inhibitory concentration (IC50) was determined as 0.86 µM at Human plasma kallikrein and 3.62 µM against Human KLK1.

In the case of `CNc1ncc(C(=O)NCc2ccc3c(N)nccc3c2)cc1Cc1ccc2nc(C)ccc2c1` [Example 21, N-[(1-Aminoisoquinolin-6-yl)methyl]-6-(methylamino)-5-[(2-methylquinolin-6-yl)methyl]pyridine-3-carboxamide], the concentration for half-maximal inhibition (IC50) on Human plasma kallikrein was 0.0533 µM; against Human KLK1, 5.99 µM.

In the case of `CN1CCOc2cc(Cc3cncc(C(=O)NCc4ccc5c(N)nccc5c4)c3)ccc21` [Example 38, N-[(1-Aminoisoquinolin-6-yl)methyl]-5-[(4-methyl-2,3-dihydro-1,4-benzoxazin-7-yl)methyl]pyridine-3-carboxamide], the half-inhibitory concentration (IC50) amounted to 0.107 µM at Human plasma kallikrein and 8.6 µM on Human KLK1.

Turning to `Nc1nccc2cc(CNC(=O)c3cncc(CN4CCN(C(=O)c5ccccc5)CC4)c3)ccc12` [Example 36, N-[(1-Aminoisoquinolin-6-yl)methyl]-5-[(4-benzoylpiperazin-1-yl)methyl]pyridine-3-carboxamide], the half-maximal inhibitory concentration (IC50) on Human plasma kallikrein came out at 6.65 µM; at Human KLK1, 23.8 µM.

Consider `CCN(CC)c1ccc(Cc2cncc(C(=O)NCc3ccc4c(N)nccc4c3)c2)cn1` [Example 66, N-[(1-Aminoisoquinolin-6-yl)methyl]-5-{[6-(diethylamino)pyridin-3-yl]methyl}pyridine-3-carboxamide], for which the 50% inhibitory concentration (IC50) came to 0.0527 µM at Human plasma kallikrein and 5.85 µM against Human KLK1.

As to `COCCOc1ccc(Cc2cncc(C(=O)NCc3ccc4c(N)nccc4c3)c2)cc1` [Example 34, N-[(1-Aminoisoquinolin-6-yl)methyl]-5-{[4-(2-methoxyethoxy)phenyl]methyl}pyridine-3-carboxamide], the values for the concentration for half-maximal inhibition (IC50) on Human plasma kallikrein and at Human KLK1 were 1.02 µM and greater than 40 µM, respectively.

Consider `Nc1nccc2cc(CNC(=O)c3cncc(Cc4ccc(N5CCC(F)C5)nc4)c3)ccc12` (stereo not drawn) [Example 60, N-[(1-Aminoisoquinolin-6-yl)methyl]-5-{[6-(3-fluoropyrrolidin-1-yl)pyridin-3-yl]methyl}pyridine-3-carboxamide], for which the IC50 at Human plasma kallikrein is 0.137 µM; against Human KLK1, 8.69 µM.

`Nc1nccc2cc(CNC(=O)c3cncc(Cc4ccc(N5CCCC5CO)nc4)c3)ccc12` (stereo not drawn) [Example 67, N-[(1-Aminoisoquinolin-6-yl)methyl]-5-({6-[2-(hydroxymethyl)pyrrolidin-1-yl]pyridin-3-yl}methyl)pyridine-3-carboxamide]: the IC50 at Human plasma kallikrein is 0.0733 µM; against Human KLK1, 5.15 µM.

`CC(C)Oc1ccc(Cc2cncc(C(=O)NCc3ccc4c(N)nccc4c3)c2)cn1` [Example 70, N-[(1-Aminoisoquinolin-6-yl)methyl]-5-[(6-isopropoxypyridin-3-yl)methyl]pyridine-3-carboxamide]: the half-inhibitory concentration (IC50) at Human plasma kallikrein is 1.74 µM; on Human KLK1 it was greater than 10 µM.

Take `CN(C)[C@H]1CCN(c2ccc(Cc3cncc(C(=O)NCc4ccc5c(N)nccc5c4)c3)cn2)C1` (stereo in doubt) [Example 68, N-[(1-Aminoisoquinolin-6-yl)methyl]-5-({6-[3-(dimethylamino)pyrrolidin-1-yl]pyridin-3-yl}methyl)pyridine-3-carboxamide]: the concentration for half-maximal inhibition (IC50) at Human plasma kallikrein was 0.375 µM; on Human KLK1 it was 3.51 µM.

On to `COc1cccc(CN2CCN(Cc3cncc(C(=O)NCc4ccc5c(N)nccc5c4)c3)CC2)c1` [Example 49, N-[(1-Aminoisoquinolin-6-yl)methyl]-5-({4-[(3-methoxyphenyl)methyl]piperazin-1-yl}methyl)pyridine-3-carboxamide], for which the IC50 at Human plasma kallikrein was 6.99 µM; at Human KLK1, greater than 10 µM.

As to `Nc1nccc2cc(CNC(=O)c3cncc(Cc4ccnc(N5CCC(F)(F)C5)c4)c3)ccc12` [Example 80, N-[(1-Aminoisoquinolin-6-yl)methyl]-5-{[2-(3,3-difluoropyrrolidin-1-yl)pyridin-4-yl]methyl}pyridine-3-carboxamide], the half-maximal inhibitory concentration (IC50) on Human plasma kallikrein is 0.0885 µM; against Human KLK1 it was 7.55 µM.

In the case of `Nc1nccc2cc(CNC(=O)c3cncc(Cc4ccc(N5CCCC5)nc4)c3)ccc12` [Example 55, N-[(1-Aminoisoquinolin-6-yl)methyl]-5-{[6-(pyrrolidin-1-yl)pyridin-3-yl]methyl}pyridine-3-carboxamide], the IC50 at Human plasma kallikrein was 0.103 µM; at Human KLK1, 4.96 µM.

Take `Cc1cnn(Cc2ccc(Cc3cncc(C(=O)NCc4c(C)cc(CN)cc4C)c3)cc2)c1` [Example 94, N-{[4-(Aminomethyl)-2,6-dimethylphenyl]methyl}-5-({4-[(4-methylpyrazol-1-yl)methyl]phenyl}methyl)pyridine-3-carboxamide]: the IC50 is 0.00747 µM at Human plasma kallikrein and greater than 40 µM on Human KLK1.

Regarding `Nc1nccc2cc(CNC(=O)c3cncc(CN4CCN(CCc5ccccc5)CC4)c3)ccc12` [Example 51, N-[(1-Aminoisoquinolin-6-yl)methyl]-5-{[4-(2-phenylethyl)piperazin-1-yl]methyl}pyridine-3-carboxamide], the IC50 on Human plasma kallikrein was 8.11 µM; against Human KLK1 it was greater than 10 µM.

For `Nc1nccc2cc(CNC(=O)c3cncc(Cc4ccc5ccncc5c4)c3)ccc12` [Example 28, N-[(1-Aminoisoquinolin-6-yl)methyl]-5-(isoquinolin-7-ylmethyl)pyridine-3-carboxamide], the IC50 at Human plasma kallikrein is 1.1 µM; against Human KLK1, 5.9 µM.

Regarding `Cc1cnn(Cc2ccc(Cc3cncc(C(=O)NCc4c(C)nc5[nH]ccc(C)c4-5)c3)cc2)c1` [Example 12, N-({2,4-Dimethyl-7H-pyrrolo[2,3-b]pyridin-3-yl}methyl)-5-({4-[(4-methylpyrazol-1-yl)methyl]phenyl}methyl)pyridine-3-carboxamide], the 50% inhibitory concentration (IC50) was determined as 0.244 µM at Human plasma kallikrein and 14.9 µM against Human KLK1.

At Human KLK1, `Cc1cnn(Cc2ccc(Cc3cncc(C(=O)NCc4ccc5c(N)nccc5c4)c3)cc2)c1` [Example 1, N-[(1-Aminoisoquinolin-6-yl)methyl]-({4-[(4-methylpyrazol-1-yl)methyl]phenyl}methyl)pyridine-3-carboxamide] gave an IC50 greater than 10 µM.

Consider `Nc1nccc2cc(CNC(=O)c3cncc(CN4CCN(c5ccccc5)CC4)c3)ccc12` [Example 39, N-[(1-Aminoisoquinolin-6-yl)methyl]-5-[(4-phenylpiperazin-1-yl)methyl]pyridine-3-carboxamide], for which, on Human plasma kallikrein, the 50% inhibitory concentration (IC50) was 10 µM.

On Human KLK1, `Cc1cnn(Cc2ccc(Cc3ccnc(C(=O)NCc4cnc5[nH]ccc5c4)c3)cc2)c1` [Example 4] displayed an IC50 greater than 40 µM.

`Cc1cnn(Cc2ccc(Cc3cncc(C(=O)NCc4cnc5[nH]ccc5c4)c3)cc2)c1` [Example 2] displayed a 50% inhibitory concentration (IC50) at Human KLK1 greater than 10 µM.
